Measurements: ChEMBL document CHEMBL1146562, “Turbinatine, a potential key intermediate in the biosynthesis of corynanthean-type indole alkaloids” (2003)

Experiments:
[1] = system: Saccharomyces cerevisiae; experiment: DNA damaging activity in yeast RS 322YK mutant assessed as drug level required to produce 12 mm zone of inhibition; format: functional
[2] = system: Saccharomyces cerevisiae; experiment: DNA damaging activity in yeast RS 188N mutant assessed as drug level required to produce 12 mm zone of inhibition; format: functional

For `C=C[C@H]1[C@H](O[C@@H]2O[C@H](CO)[C@@H](O)[C@H](O)[C@H]2O)OC=C(C(=O)OC)[C@H]1C[C@@H]1N[C@@H](C(=O)O)Cc2c1[nH]c1ccccc21`, the IC12 [1] was 100 µg/mL and the IC12 [2] was > 250 µg/mL.

`C/C=C(\C=O)[C@@H]1C[C@H]2c3[nH]c4ccccc4c3CCN2C=C1C(=O)OC` [ISOVALLESIACHOTAMINE] was tested, and the IC12 [1] was 100 µg/mL and the IC12 [2] was > 250 µg/mL.

For `C=C[C@H]1[C@H](O[C@@H]2O[C@H](CO)[C@@H](O)[C@H](O)[C@H]2O)OC=C(C(=O)OC)[C@H]1C[C@@H]1NCCc2c1[nH]c1ccccc21` [STRICTOSIDINE], the IC12 [1] was 100 µg/mL and the IC12 [2] was > 250 µg/mL.

For `C=C[C@H]1[C@@H](/C(=C/O)C(=O)OC)C[C@H]2c3[nH]c4ccccc4c3CCN2[C@H]1O[C@H]1O[C@@H](CO)[C@H](O)[C@@H](O)[C@@H]1O` [TURBINATINE], the IC12 [1] was 100 µg/mL and the IC12 [2] was > 250 µg/mL.

In the case of `C/C=C(/C=O)[C@@H]1C[C@H]2c3[nH]c4ccccc4c3CCN2C=C1C(=O)OC` [VALLESIACHOTAMINE], the IC12 [1] is reported as 100 µg/mL and the IC12 [2] is reported as > 250 µg/mL.
